Measured values reported in patent US11981658B2, “Substituted aminopyridine compounds as EGFR inhibitors” (YUHAN CORPORATION, priority 2021, dated 2024).
Read-outs that look alike come from different tables or passages of the source.

Columns and labels:
EGFR L858R/C797S = EGFR L858R/C797S (Homo sapiens, UniProt P00533, C797S/L858R); assay: Biochemical EGFR kinase inhibition assay (Lance Ultra TR-FRET), double mutant L858R/C797S
Procedure, shortened: (§1)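 In this biochemical assay, phosphorylation after a one-hour room-temperature reaction was detected with europium-labelled anti-phosphopeptide antibody at 2 nM final concentration.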

EGFR L858R/T790M/C797S = EGFR L858R/T790M/C797S (Homo sapiens, UniProt P00533, C797S/L858R/T790M); assay: Biochemical EGFR kinase inhibition assay (Lance Ultra TR-FRET), triple mutant L858R/T790M/C797S
Procedure, shortened: as §1

EGFR wildtype (WT) = EGFR wildtype (WT) (Homo sapiens, UniProt P00533); assay: Biochemical EGFR kinase inhibition assay (Lance Ultra TR-FRET), wildtype
Procedure, shortened: as §1

EGFR Del19/T790M/C797S = EGFR Del19/T790M/C797S (Homo sapiens, UniProt P00533, C797S/DEL746-750/T790M); assay: Biochemical EGFR kinase inhibition assay (Lance Ultra TR-FRET), triple mutant del19/T790M/C797S
Procedure, shortened: as §1

EGFR Del19/C797S = EGFR Del19/C797S (Homo sapiens, UniProt P00533, C797S/DEL746-750); assay: Biochemical EGFR kinase inhibition assay (Lance Ultra TR-FRET), double mutant del19/C797S
Procedure, shortened: as §1

[1] = ATP at Km, read-out: IC50 L858R/C797S (nM), Km ATP
[2] = IC50 L858R/C797S (nM), 100 μM ATP
[3] = ATP at Km, read-out: IC50 L858R/T790M/C797S (nM), Km ATP
[4] = IC50 L858R/T790M/C797S (nM), 100 μM ATP
[5] = ATP at Km, read-out: IC50 WT (nM), Km ATP
[6] = ATP at Km, read-out: IC50 Del19/T790M/C797S (nM), Km ATP
[7] = IC50 Del19/T790M/C797S (nM), 100 μM ATP
[8] = ATP at Km, read-out: IC50 Del19/C797S (nM), Km ATP
[9] = IC50 Del19/C797S (nM), 100 μM ATP
[10] = Km ATP, read-out: IC50 L858R/C797S (nM), Km ATP
[11] = Km ATP, read-out: IC50 L858R/T790M/C797S (nM), Km ATP
[12] = Km ATP, read-out: IC50 WT (nM), Km ATP
[13] = Km ATP, read-out: IC50 Del19/T790M/C797S (nM), Km ATP
[14] = Km ATP, read-out: IC50 Del19/C797S (nM), Km ATP

EGFR wildtype (WT), sequence (P00533 25-1210): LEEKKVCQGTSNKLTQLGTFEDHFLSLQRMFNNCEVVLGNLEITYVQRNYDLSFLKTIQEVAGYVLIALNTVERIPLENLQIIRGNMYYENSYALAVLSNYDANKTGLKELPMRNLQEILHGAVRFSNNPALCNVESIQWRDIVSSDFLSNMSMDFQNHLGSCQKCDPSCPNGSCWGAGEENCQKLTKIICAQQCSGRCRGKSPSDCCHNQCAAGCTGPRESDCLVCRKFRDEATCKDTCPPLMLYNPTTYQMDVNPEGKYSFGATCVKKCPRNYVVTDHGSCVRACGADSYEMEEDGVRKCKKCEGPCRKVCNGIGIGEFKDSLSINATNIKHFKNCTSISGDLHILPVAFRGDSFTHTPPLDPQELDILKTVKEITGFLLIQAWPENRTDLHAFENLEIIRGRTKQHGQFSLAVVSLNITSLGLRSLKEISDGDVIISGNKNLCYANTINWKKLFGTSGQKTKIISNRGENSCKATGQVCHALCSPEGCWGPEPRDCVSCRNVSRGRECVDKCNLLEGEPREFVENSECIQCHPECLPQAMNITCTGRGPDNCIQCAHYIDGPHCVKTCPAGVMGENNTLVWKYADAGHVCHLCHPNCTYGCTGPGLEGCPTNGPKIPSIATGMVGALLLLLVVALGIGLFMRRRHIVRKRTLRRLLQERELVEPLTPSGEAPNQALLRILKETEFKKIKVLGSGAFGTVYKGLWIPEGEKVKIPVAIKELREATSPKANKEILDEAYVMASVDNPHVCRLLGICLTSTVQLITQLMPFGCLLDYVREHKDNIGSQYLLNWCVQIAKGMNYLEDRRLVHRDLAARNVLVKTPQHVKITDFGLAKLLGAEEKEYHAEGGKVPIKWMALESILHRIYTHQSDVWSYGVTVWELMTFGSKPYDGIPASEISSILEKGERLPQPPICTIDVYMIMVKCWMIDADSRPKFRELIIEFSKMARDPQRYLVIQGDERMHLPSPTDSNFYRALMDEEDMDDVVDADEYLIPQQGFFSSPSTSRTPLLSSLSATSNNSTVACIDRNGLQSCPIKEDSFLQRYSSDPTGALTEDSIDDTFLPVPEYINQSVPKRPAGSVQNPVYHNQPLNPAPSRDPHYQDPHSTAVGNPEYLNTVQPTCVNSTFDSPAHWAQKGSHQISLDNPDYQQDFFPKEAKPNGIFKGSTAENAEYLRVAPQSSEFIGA
EGFR Del19/T790M/C797S, sequence (P00533 with tags, fused parts or gaps DEL746-750/T790M/C797S): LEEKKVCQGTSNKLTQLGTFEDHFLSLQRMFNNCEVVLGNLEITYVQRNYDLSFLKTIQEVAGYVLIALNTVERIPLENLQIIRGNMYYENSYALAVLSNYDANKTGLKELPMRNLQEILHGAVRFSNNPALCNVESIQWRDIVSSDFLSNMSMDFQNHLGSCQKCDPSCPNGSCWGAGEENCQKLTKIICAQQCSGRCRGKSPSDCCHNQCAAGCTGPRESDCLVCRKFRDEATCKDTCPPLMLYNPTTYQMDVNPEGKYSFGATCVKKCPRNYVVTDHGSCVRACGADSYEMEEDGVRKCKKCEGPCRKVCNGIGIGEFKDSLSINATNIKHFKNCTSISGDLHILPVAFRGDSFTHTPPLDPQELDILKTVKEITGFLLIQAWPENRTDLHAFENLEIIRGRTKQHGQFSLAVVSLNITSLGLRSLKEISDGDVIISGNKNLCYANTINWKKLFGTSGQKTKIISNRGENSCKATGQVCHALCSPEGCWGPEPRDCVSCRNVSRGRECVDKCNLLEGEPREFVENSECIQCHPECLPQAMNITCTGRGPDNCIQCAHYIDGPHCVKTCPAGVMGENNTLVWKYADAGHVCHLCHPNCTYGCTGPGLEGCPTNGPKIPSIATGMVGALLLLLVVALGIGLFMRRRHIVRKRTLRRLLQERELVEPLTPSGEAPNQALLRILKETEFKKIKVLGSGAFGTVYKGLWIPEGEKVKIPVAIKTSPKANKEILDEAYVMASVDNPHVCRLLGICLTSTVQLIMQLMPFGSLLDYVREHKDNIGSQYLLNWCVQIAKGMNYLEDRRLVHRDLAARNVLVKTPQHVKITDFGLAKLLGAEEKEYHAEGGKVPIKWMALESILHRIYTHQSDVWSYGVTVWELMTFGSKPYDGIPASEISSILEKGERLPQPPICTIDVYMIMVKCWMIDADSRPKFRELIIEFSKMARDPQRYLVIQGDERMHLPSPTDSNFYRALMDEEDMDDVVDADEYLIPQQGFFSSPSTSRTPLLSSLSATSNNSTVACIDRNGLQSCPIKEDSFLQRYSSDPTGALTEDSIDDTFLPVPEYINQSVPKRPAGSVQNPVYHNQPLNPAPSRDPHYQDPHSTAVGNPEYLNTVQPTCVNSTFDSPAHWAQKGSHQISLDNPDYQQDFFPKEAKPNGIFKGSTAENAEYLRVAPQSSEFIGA
EGFR Del19/C797S, sequence (P00533 with tags, fused parts or gaps DEL746-750/C797S): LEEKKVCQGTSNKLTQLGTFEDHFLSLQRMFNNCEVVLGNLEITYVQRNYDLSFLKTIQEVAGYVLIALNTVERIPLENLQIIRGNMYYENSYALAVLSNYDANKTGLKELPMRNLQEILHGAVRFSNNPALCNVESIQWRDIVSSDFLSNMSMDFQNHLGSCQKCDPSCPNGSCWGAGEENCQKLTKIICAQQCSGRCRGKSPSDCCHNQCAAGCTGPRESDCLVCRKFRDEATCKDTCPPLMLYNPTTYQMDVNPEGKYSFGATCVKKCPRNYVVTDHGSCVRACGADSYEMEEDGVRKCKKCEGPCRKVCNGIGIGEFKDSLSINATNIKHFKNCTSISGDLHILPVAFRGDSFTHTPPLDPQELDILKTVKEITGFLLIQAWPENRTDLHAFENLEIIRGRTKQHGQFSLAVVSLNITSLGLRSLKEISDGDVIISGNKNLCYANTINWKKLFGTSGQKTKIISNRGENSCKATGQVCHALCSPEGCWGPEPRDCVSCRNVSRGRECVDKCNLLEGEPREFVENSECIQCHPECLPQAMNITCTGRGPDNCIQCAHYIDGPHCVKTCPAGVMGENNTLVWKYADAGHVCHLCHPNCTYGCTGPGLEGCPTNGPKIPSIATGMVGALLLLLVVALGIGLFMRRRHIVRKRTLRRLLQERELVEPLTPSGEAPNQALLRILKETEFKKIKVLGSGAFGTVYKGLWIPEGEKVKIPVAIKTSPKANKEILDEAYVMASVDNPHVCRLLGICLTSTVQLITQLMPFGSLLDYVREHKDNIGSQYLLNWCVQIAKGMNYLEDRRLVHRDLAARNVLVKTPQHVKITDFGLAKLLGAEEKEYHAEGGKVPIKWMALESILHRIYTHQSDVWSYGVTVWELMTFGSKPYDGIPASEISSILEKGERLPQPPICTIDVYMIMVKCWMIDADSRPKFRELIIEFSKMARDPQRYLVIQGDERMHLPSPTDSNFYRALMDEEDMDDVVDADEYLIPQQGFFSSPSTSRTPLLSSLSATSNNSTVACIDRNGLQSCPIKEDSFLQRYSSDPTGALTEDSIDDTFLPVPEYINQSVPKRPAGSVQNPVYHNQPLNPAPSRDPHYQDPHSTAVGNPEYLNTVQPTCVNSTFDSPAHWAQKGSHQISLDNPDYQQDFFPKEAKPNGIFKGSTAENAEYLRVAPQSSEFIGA
EGFR L858R/T790M/C797S, sequence (P00533 25-1210 T790M/C797S/L858R): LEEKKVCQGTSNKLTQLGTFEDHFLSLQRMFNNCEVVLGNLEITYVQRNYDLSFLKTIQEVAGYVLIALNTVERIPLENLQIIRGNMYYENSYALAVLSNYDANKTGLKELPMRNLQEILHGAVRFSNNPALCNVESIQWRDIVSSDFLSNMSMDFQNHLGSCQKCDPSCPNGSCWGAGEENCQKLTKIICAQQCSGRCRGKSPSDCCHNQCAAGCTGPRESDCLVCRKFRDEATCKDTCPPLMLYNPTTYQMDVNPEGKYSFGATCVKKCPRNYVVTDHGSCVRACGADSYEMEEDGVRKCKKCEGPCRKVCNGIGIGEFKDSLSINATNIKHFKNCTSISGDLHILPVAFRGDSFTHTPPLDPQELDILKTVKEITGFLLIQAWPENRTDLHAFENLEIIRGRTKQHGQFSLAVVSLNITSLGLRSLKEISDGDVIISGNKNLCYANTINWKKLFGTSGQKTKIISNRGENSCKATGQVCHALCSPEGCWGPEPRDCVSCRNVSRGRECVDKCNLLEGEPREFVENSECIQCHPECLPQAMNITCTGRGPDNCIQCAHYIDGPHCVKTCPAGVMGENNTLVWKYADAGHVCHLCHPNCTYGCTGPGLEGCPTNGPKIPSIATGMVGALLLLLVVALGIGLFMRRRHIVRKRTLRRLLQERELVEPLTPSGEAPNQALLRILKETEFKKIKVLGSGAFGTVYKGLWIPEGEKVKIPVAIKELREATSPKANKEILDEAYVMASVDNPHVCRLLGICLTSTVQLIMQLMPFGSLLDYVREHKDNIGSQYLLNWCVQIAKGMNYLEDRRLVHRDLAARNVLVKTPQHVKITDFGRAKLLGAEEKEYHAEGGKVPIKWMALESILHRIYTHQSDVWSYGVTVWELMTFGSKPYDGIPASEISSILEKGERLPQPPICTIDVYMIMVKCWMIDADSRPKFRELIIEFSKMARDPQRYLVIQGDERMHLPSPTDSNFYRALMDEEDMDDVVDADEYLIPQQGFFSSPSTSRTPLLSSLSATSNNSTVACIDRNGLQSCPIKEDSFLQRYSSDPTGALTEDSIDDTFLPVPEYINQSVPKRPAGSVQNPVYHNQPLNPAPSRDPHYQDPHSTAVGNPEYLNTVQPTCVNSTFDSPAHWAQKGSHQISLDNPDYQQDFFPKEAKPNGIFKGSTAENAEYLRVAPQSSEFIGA

Row | IC50 (EGFR L858R/C797S; [1]) [nM] | IC50 (EGFR L858R/C797S; [2]) [nM] | IC50 (EGFR L858R/T790M/C797S; [3]) [nM] | IC50 (EGFR L858R/T790M/C797S; [4]) [nM] | IC50 (EGFR wildtype (WT); [5]) [nM] | IC50 (EGFR wildtype (WT); IC50 WT (nM), 100 μM ATP) [nM] | IC50 (EGFR Del19/T790M/C797S; [6]) [nM] | IC50 (EGFR Del19/T790M/C797S; [7]) [nM] | IC50 (EGFR Del19/C797S; [8]) [nM] | IC50 (EGFR Del19/C797S; [9]) [nM] | IC50 (EGFR L858R/C797S; Km ATP, read-out: IC50 L858R/C797S (nM) Km ATP) [nM] | IC50 (EGFR L858R/T790M/C797S; Km ATP, read-out: IC50 L858R/T790M/C797S (nM) Km ATP) [nM] | IC50 (EGFR wildtype (WT); Km ATP, read-out: IC50 WT (nM) Km ATP) [nM] | IC50 (EGFR Del19/T790M/C797S; Km ATP, read-out: IC50 Del19/T790M/C797S (nM) Km ATP) [nM] | IC50 (EGFR Del19/C797S; Km ATP, read-out: IC50 Del19/C797S (nM) Km ATP) [nM] | IC50 (EGFR L858R/C797S; [10]) [nM] | IC50 (EGFR L858R/T790M/C797S; [11]) [nM] | IC50 (EGFR wildtype (WT); [12]) [nM] | IC50 (EGFR Del19/T790M/C797S; [13]) [nM] | IC50 (EGFR Del19/C797S; [14]) [nM] | Compound
1 | 1.4 | 1.2 | 0.1 | 0.3 | 1 | 376 | 1.3 | 0.2 | 0.3 | 0.4 | – | – | – | – | – | – | – | – | – | – | CN(C)Cc1cccc(C#Cc2cnc(Nc3ccnc(-c4cnn(S(=O)(=O)C5CC5)c4)n3)cc2N2CCC(C)(CO)CC2)c1 [Example 255, (1-(2-((2-(1-(Cyclopropylsulfonyl)-1H-pyrazol-4-yl)pyrimidin-4-yl)amino)-5-((3-((dimethylamino)methyl)phenyl)ethynyl)pyridin-4-yl)-4-methylpiperidin-4-yl)methanol]
2 | – | 53.3 | – | 6.1 | – | > 10000 | – | 2 | – | 10.3 | – | – | – | – | – | – | – | – | – | – | O=S(=O)(C1CC1)n1cc(-c2nccc(Nc3cc(N4CCC(CCO)CC4)c(C#Cc4cnn(CCF)c4)cn3)n2)cn1 [Example 17, 2-(1-(2-((2-(1-(Cyclopropylsulfonyl)-1H-pyrazol-4-yl)pyrimidin-4-yl)amino)-5-((1-(2-fluoroethyl)-1H-pyrazol-4-yl)ethynyl)pyridin-4-yl)piperidin-4-yl)ethan-1-ol]
3 | – | 494 | – | 21.8 | – | > 10000 | – | 6.2 | – | 274 | – | – | – | – | – | – | – | – | – | – | O=S(=O)(C1CC1)n1cc(-c2nccc(Nc3cc(N4CCC[C@H](O)C4)c(C#Cc4ccsc4)cn3)n2)cn1 [Example 228, (S)-1-(2-((2-(1-(Cyclopropylsulfonyl)-1H-pyrazol-4-yl)pyrimidin-4-yl)amino)-5-(thiophen-3-ylethynyl)pyridin-4-yl)piperidin-3-ol]
4 | – | 43.4 | – | 1.1 | – | > 10000 | – | 1.1 | – | 5.1 | – | – | – | – | – | – | – | – | – | – | CN1CCN(C2CCN(c3cc(Nc4ccnc(-c5cnn(S(=O)(=O)C6CC6)c5)n4)ncc3C#Cc3ccsc3)CC2)CC1 [Example 226, 2-(1-(Cyclopropylsulfonyl)-1H-pyrazol-4-yl)-N-(4-(4-(4-methylpiperazin-1-yl)piperidin-1-yl)-5-(thiophen-3-ylethynyl)pyridin-2-yl)pyrimidin-4-amine]
5 | – | 137 | – | 1.9 | – | > 10000 | – | 0.6 | – | 16.1 | 16.4 | 0.5 | 80.1 | 0.5 | 12.3 | – | – | – | – | – | Cn1cc(C#Cc2cnc(Nc3ccnc(-c4cnn(S(=O)(=O)C5CC5)c4)n3)cc2N[C@H]2CC[C@@H](NCCF)CC2)cn1 [Example 80, N^2-(2-(1-(Cyclopropylsulfonyl)-1H-pyrazol-4-yl)pyrimidin-4-yl)-N^4-((1s, 4s)-4-((2-fluoroethyl)amino)cyclohexyl)-5-((1-methyl-1H-pyrazol-4-yl)ethynyl)pyridine-2,4-diamine]
6 | – | 102 | – | 1.1 | – | > 10000 | – | 0.5 | – | 2.5 | – | – | – | – | – | 7.8 | 3.4 | 15.1 | 0.3 | 1.4 | O=S(=O)(C1CC1)n1cc(-c2nccc(Nc3cc(NC4CCC(O)CC4)c(C#CC4CCCO4)cn3)n2)cn1 (centres unmarked) [Example 376, (1s,4s)-4-((2-((2-(1-(Cyclopropylsulfonyl)-1H-pyrazol-4-yl)pyrimidin-4-yl)amino)-5-((tetrahydrofuran-2-yl)ethynyl)pyridin-4-yl)amino)cyclohexan-1-ol]
7 | – | 954 | – | 13.9 | – | > 10000 | – | 2.8 | – | 81.4 | – | – | – | – | – | – | – | – | – | – | CC1(C#Cc2cnc(Nc3ccnc(-c4cnn(S(=O)(=O)C5CC5)c4)n3)cc2N[C@H]2CC[C@@H](O)CC2)COC1 [Example 350, (1s,4s)-4-((2-((2-(1-(Cyclopropylsulfonyl)-1H-pyrazol-4-yl)pyrimidin-4-yl)amino)-5-((3-methyloxetan-3-yl)ethynyl)pyridin-4-yl)amino)cyclohexan-1-ol]
8 | 1.5 | 11.5 | 0.1 | 0.3 | 5 | 2690 | 0.1 | 0.3 | 0.8 | 0.7 | – | – | – | – | – | – | – | – | – | – | CN(C)CC1(C)CCN(c2cc(Nc3ccnc(-c4cnn(S(=O)(=O)C5CC5)c4)n3)ncc2C#Cc2cnn(CC(F)F)c2)CC1 [Example 302, 2-(1-(Cyclopropylsulfonyl)-1H-pyrazol-4-yl)-N-(5-((1-(2,2-difluoroethyl)-1H-pyrazol-4-yl)ethynyl)-4-(4-((dimethylamino)methyl)-4-methylpiperidin-1-yl)pyridin-2-yl)pyrimidin-4-amine]
9 | – | 14.5 | – | 0.7 | – | 5200 | – | 0.5 | – | 2.1 | – | – | – | – | – | 1.6 | 0.1 | 4.6 | 0.3 | 0.4 | CC1(CO)CCN(c2cc(Nc3ccnc(-c4cnn(S(=O)(=O)C5CC5)c4)n3)ncc2C#CC2CCN(S(C)(=O)=O)CC2)CC1 [Example 389, (1-(2-((2-(1-(Cyclopropylsulfonyl)-1H-pyrazol-4-yl)pyrimidin-4-yl)amino)-5-((1-(methylsulfonyl)piperidin-4-yl)ethynyl)pyridin-4-yl)-4-methylpiperidin-4-yl)methanol]
10 | 0.6 | 3.4 | 0.1 | 0.2 | 1.4 | 206 | 0.1 | 0.3 | 0.4 | 0.3 | – | – | – | – | – | – | – | – | – | – | CN(C)CCC1CCN(c2cc(Nc3ccnc(-c4cnn(S(=O)(=O)C5CC5)c4)n3)ncc2C#Cc2cnn(CC(F)F)c2)CC1 [Example 303, 2-(1-(Cyclopropylsulfonyl)-1H-pyrazol-4-yl)-N-(5-((1-(2,2-difluoroethyl)-1H-pyrazol-4-yl)ethynyl)-4-(4-(2-(dimethylamino)ethyl)piperidin-1-yl)pyridin-2-yl)pyrimidin-4-amine]
11 | – | 5.1 | – | 0.8 | – | > 10000 | – | 0.3 | – | 0.9 | – | – | – | – | – | 1.4 | 0.1 | 1.9 | 0.3 | 0.9 | CN1CCN(Cc2ccc(C#Cc3cnc(Nc4ccnc(-c5cnn(S(=O)(=O)C6CC6)c5)n4)cc3N3CCC4(CCO4)CC3)cc2)CC1 [Example 370, 2-(1-(Cyclopropylsulfonyl)-1H-pyrazol-4-yl)-N-(5-((4-((4-methylpiperazin-1-yl)methyl)phenyl)ethynyl)-4-(1-oxa-7-azaspiro[3.5]nonan-7-yl)pyridin-2-yl)pyrimidin-4-amine]
12 | 41.5 | 397 | 1.4 | 5.3 | 72.6 | > 10000 | 3 | 3.3 | 8.7 | 15.9 | – | – | – | – | – | – | – | – | – | – | CC1(CO)CCN(c2cc(Nc3ccnc(-c4cnn(S(=O)(=O)C5CC5)c4)n3)ncc2C#CC2CCCC2)CC1 [Example 251, (1-(5-(Cyclopentylethynyl)-2-((2-(1-(cyclopropylsulfonyl)-1H-pyrazol-4-yl)pyrimidin-4-yl)amino)pyridin-4-yl)-4-methylpiperidin-4-yl)methanol]
13 | – | 49.6 | – | 3.1 | – | > 10000 | – | 1.3 | – | 10.9 | – | – | – | – | – | – | – | – | – | – | CN(C)C[C@@H]1CCCN(c2cc(Nc3ccnc(-c4cnn(S(=O)(=O)C5CC5)c4)n3)ncc2C#Cc2cnn(C)c2)C1 [Example 384, (S)-2-(1-(Cyclopropylsulfonyl)-1H-pyrazol-4-yl)-N-(4-(3-((dimethylamino)methyl)piperidin-1-yl)-5-((1-methyl-1H-pyrazol-4-yl)ethynyl)pyridin-2-yl)pyrimidin-4-amine]
14 | – | 166 | – | 13.9 | – | > 10000 | – | 5.6 | – | 76.8 | – | – | – | – | – | – | – | – | – | – | Cn1cc(C#Cc2cnc(Nc3ccnc(-c4cnn(S(=O)(=O)C5CC5)c4)n3)cc2N2CCC(CCO)CC2)c(C(F)(F)F)n1 [Example 91, 2-(1-(2-((2-(1-(Cyclopropylsulfonyl)-1H-pyrazol-4-yl)pyrimidin-4-yl)amino)-5-((1-methyl-3-(trifluoromethyl)-1H-pyrazol-4-yl)ethynyl)pyridin-4-yl)piperidin-4-yl)ethan-1-ol]
